For experiment [1], the target named is glucocorticoid receptor (GR) recombinant ligand binding domain (LBD) (Homo sapiens (Human), UniProt P04150). Kind of experiment: GR binding fluorescence polarisation (FP) assay. The settings on record: displacement of fluorescently tagged ligand. How it is done: Binding of test compounds to the glucocorticoid receptor (GR) is determined using a fluorescence polarisation (FP) assay utilising a recombinant ligand binding domain (LBD) of GR. The test compounds are assessed by their ability to displace a fluorescently tagged ligand and detection of the resulting decrease in fluorescence polarisation.
Sequence of glucocorticoid receptor (GR) recombinant ligand binding domain (LBD) (P04150 524-758): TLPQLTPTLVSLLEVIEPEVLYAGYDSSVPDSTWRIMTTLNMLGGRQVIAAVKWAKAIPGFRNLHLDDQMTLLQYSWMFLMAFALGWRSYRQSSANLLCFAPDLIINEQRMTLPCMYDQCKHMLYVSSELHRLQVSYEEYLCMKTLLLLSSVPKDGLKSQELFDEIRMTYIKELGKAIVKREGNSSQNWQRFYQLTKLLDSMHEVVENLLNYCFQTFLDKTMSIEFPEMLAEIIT

The subject of experiment [2] is induction of TAT by dexamethasone in HepG2 cells. Kind of experiment: Hep G2 TAT assay (inhibition of dexamethasone-induced TAT). Format: cell-based, human. The settings on record: challenge of 100 nM dexamethasone, IC50 converted to Ki by Cheng and Prusoff equation.

Regarding `Cc1cc2c(cnn2-c2ccc(F)cc2)cc1C1(Cc2ccccc2)CCN(S(=O)(=O)c2cnn(C)c2)C1` (stereo not shown) [Example 153], the IC50 in experiment [1] is 11 nM. This molecule also returned a Ki in experiment [2] of 26 nM.

In the case of `Cc1cc2c(cnn2-c2ccc(F)cc2)cc1C1(Cc2ccccc2)CCN(S(=O)(=O)c2cncs2)C1` (stereo not shown) [Example 154], in experiment [1], the IC50 turned out to be 269 nM. The molecule further had a Ki in experiment [2] of 14 nM.

As for `Cc1cc2c(cnn2-c2ccc(F)cc2)cc1C1(Cc2ccccc2)CCN(S(=O)(=O)C2CC2)C1` (stereo not shown) [Example 155], the IC50 in experiment [1] was 13 nM. Further, the Ki in experiment [2] amounted to 16 nM.

As for `Cc1cc2c(cnn2-c2ccc(F)cc2)cc1C1(Cc2ccccc2)CCN(S(=O)(=O)C2CCOCC2)C1` (stereo not shown) [Example 156], the IC50 in experiment [1] stood at 11 nM. The molecule also displayed a Ki in experiment [2] of 36 nM.

For `COc1cc2c(cnn2-c2ccc(F)cc2)cc1C1(Cc2ccccc2)CCN(S(C)(=O)=O)C1` (stereo not shown) [Example 160], the IC50 in experiment [1] was found to be 5 nM. In experiment [2], this molecule registered a Ki of 24 nM.

For the molecule `COc1cc2c(cnn2-c2ccc(F)cc2)cc1C1(Cc2ccccc2)CCN(S(=O)(=O)c2cnn(C)c2)C1` (stereo not shown) [Example 161], the IC50 in experiment [1] is 11 nM. Also, the Ki in experiment [2] amounted to 39 nM.

Take `CCCn1cc(S(=O)(=O)N2CCC(Cc3ccccc3)(c3cc4cnn(-c5ccc(F)cc5)c4cc3OC)C2)cn1` (stereo not shown) [Example 162]: in experiment [1], the IC50 was found to be 18 nM. The affinity in experiment [2], expressed as Ki, was 16 nM.

For `CC(C)c1cc2c(cnn2-c2ccc(F)cc2)cc1C1(Cc2ccccc2)CCN(S(C)(=O)=O)C1` (stereo not shown) [Example 163], the IC50 in experiment [1] was 106 nM. Besides, the Ki in experiment [2] was found to be 60 nM.

Take `CC(C)c1cc2c(cnn2-c2ccc(F)cc2)cc1C1(Cc2ccccc2)CCN(S(=O)(=O)c2cnn(C)c2)C1` (stereo not shown) [Example 164]: in experiment [1], the IC50 amounted to 189 nM. Moreover, the affinity in experiment [2] corresponds to a Ki of 89 nM.

Take `CCCn1cc(S(=O)(=O)N2CCC(Cc3ccccc3)(c3cc4cnn(-c5ccc(F)cc5)c4cc3C(C)C)C2)cn1` (stereo not shown) [Example 165]: the IC50 in experiment [1] was found to be 72 nM. In experiment [2], this molecule had a Ki of 37 nM.

For the molecule `COc1cc2c(cnn2-c2ccc(F)cc2)cc1C1(Cc2ccccc2)CCN(S(=O)(=O)C2CC2)C1` (stereo not shown) [Example 166], the IC50 in experiment [1] was determined as 14 nM. The Ki in experiment [2] came to 26 nM.

As to `CCC1(c2cc3cnn(-c4ccc(F)cc4)c3cc2C)CCN(S(C)(=O)=O)C1` (stereo not shown) [Example 167], the IC50 in experiment [1] is 8 nM. The affinity in experiment [2], expressed as Ki, was 256 nM.

In the case of `CCCn1cc(S(=O)(=O)N2CCC(CC)(c3cc4cnn(-c5ccc(F)cc5)c4cc3C)C2)cn1` (stereo not shown) [Example 168], in experiment [1], the IC50 was determined as 6 nM. The molecule further had a Ki in experiment [2] of 67 nM.

As for `Cc1cc2c(cnn2-c2ccc(F)cc2)cc1C1(Cc2ccc(C(F)(F)F)cn2)CCN(S(=O)(=O)c2cnn(C)c2)C1` (stereo not shown) [Example 169], the IC50 in experiment [1] was found to be 217 nM. For the same molecule, affinity in experiment [2] was put at a Ki of 159 nM.

Regarding `Cc1cc2c(cnn2-c2ccc(F)cc2)cc1C1(Cc2ccc(C(F)(F)F)nc2)CCN(S(=O)(=O)c2cnn(C)c2)C1` (stereo not shown) [Example 170], the IC50 in experiment [1] is 123 nM. The Ki in experiment [2] is 104 nM.

Turning to `Cc1cc2c(cnn2-c2ccc(F)cc2)cc1C1(Cc2ccc(C(F)F)nc2)CCN(S(=O)(=O)c2cnn(C)c2)C1` (stereo not shown) [Example 171], in experiment [1], the IC50 was determined as 67 nM. Further, the Ki in experiment [2] was found to be 171 nM.

Turning to `Cc1cc2c(cc1C1(Cc3ccccc3)CCN(S(=O)(=O)c3cnn(C)c3)C1)nnn2-c1ccc(F)cc1` (stereo not shown) [Example 172], in experiment [1], the IC50 was found to be 58 nM. The Ki in experiment [2] was determined as 83 nM.

On to `Cn1cc(S(=O)(=O)N2CCC(Cc3ccccc3)(c3cc4cnn(-c5ccc(F)cc5)c4cc3F)C2)cn1` (stereo not shown) [Example 173], for which the IC50 in experiment [1] came to 66 nM. In experiment [2], this molecule came in with a Ki of 69 nM.

Turning to `Cc1cc2c(cnn2-c2ccc(F)cc2)cc1C1(Cc2ccc(F)cc2)CCN(S(C)(=O)=O)C1` (stereo not shown) [Example 174], in experiment [1], the IC50 was 9 nM. For the same molecule, in experiment [2], the Ki was found to be 28 nM.

In the case of `Cc1cc2c(cnn2-c2ccc(F)cc2)cc1C1(Cc2cccc(C(F)(F)F)c2)CCN(S(C)(=O)=O)C1` (stereo not shown) [Example 175], the IC50 in experiment [1] is 24 nM. Further, the Ki in experiment [2] came out at 20 nM.
